{
  "source": "patent US20240408112A1",
  "about": "“METHOD FOR PREVENTING OR TREATING PULMONARY ARTERIAL HYPERTENSION BY USING 7-DEHYDROCHOLESTEROLS OR SALTS, OXIDES, METABOLITES, OR DERIVATIVES THEREOF” (EXCELSIOR PHARMATECH LABS., priority 2023, published 2024)",
  "format_in_all_cases": "cell-based",
  "key": {"[1]": {"tested_on": "normal rat pulmonary artery smooth muscle cells (rPASMC CON)", "assay": "BrdU cell proliferation assay, 0.1% FBS, 100 pM TGF-β, rPASMC CON", "details": "100 pM TGF-β", "protocol": "(§1) BrdU (5-bromo-2-deoxyuridine) cell proliferation assay (BrdU assay)\nA 48-well plate was used, and 1.5×10^4 cells were implanted in each well. After 24 hours, the medium was changed to serum-free culture medium and synchronized for 24 hours. A 2-fold concentration of the compound in serum-free culture medium is prepared and the cells were pretreated for 1 hour. Then, the same volume of culture medium containing 20% fetal bovine serum (FBS) was added to dilute the compound. The final concentration was 10% FBS culture medium and 1 times the concentration of the compound. In the experimental group that added TGF-β, the same volume of TGF-β culture medium containing 10 ng/mL was added, […] of the compound, and in the experimental group added with TGF-β, the entire process was conducted in culture medium containing 0.1% serum. Then, BrdU reagent was added about 6 hours later, and the cells were collected the next day for enzyme-linked immunosorbent assay (ELISA) analysis, the compound treatment time was about 24 hours, and the BrdU treatment time was about 18 hours.\nFive compounds to be tested were screened by cell survival assay (MTT assay) and BrdU (5-bromo-2-deoxyuridine) cell proliferation assay, and the information of these compounds was listed in Table 1 below."}, "[2]": {"tested_on": "PAH rat pulmonary artery smooth muscle cells (rPASMC MCT)", "assay": "BrdU cell proliferation assay, 0.1% FBS, 100 pM TGF-β, rPASMC MCT", "details": "100 pM TGF-β", "protocol": "as §1\nA 48-well plate was used, and 1.5×10^4 cells were implanted in each well. After 24 hours, the medium was changed to serum-free culture medium and synchronized for 24 hours. A 2-fold concentration of the compound in serum-free culture medium is prepared and the cells were pretreated for 1 hour. Then, the same volume of culture medium containing 20% fetal bovine serum (FBS) was added to dilute the compound. The final concentration was 10% FBS culture medium and 1 times the concentration of the compound. In the experimental group that added TGF-β, the same volume of TGF-β culture medium containing 10 ng/mL was added, with a final concentration of 5 ng/mL TGF-β and 1 times the concentration of the compound, and in the experimental group added with TGF-β, the entire process was conducted in culture medium containing 0.1% serum. Then, BrdU reagent was added about 6 hours later, and the cells were collected the next day for enzyme-linked immunosorbent assay (ELISA) analysis, the compound treatment time was about 24 hours, and the BrdU treatment time was about 18 hours.\nFive compounds to be tested were screened by cell survival assay (MTT assay) and BrdU (5-bromo-2-deoxyuridine) cell proliferation assay, and the information of these compounds was listed in Table 1 below. Tables 2 and 3 respectively listed the growth inhibitions of on human pulmonary artery endothelial cells (hPAEC), human pulmonary artery smooth muscle cells (hPASMC), normal rat pulmonary artery smooth muscle cells (rPASMC, as the control group, represented by “CON”), and rat pulmonary artery smooth muscle cells (represented by “MCT”), by the five compounds to be tested under the conditions of 10% FBS, 0.1% FBS and 100 pM TGF-β."}, "[3]": {"tested_on": "TGF-β-stimulated PAI-1 promoter activity", "assay": "TGF-β stimulated Pai-1 luciferase assay in MLECs-clone32 cells", "details": "TGF-β 50 pM, 4 hours, read-out: IC50 value of compound inhibiting TGF-β-stimulated Pai-1 luciferase activity (%)", "excerpt": "TGF-β Stimulated Pai-1 Luciferase Assay\nMLECs-clone32 cell line was used to measure the impact of different compounds on the downstream gene, plasminogenactivator inhibitor 1 (PAI-1) performance stimulated by TGF-β. MLECs-clone32 is an expression construct that is stably transfected for the Mv1Lu cell line, and the expression construct PAI-1 Luciferase contains a truncated (PAI-1) promoter fused to the firefly luciferase reporter gene^11,12. The activity stimulated by the truncated PAI-I promoter was quantified by using a luciferase assay. The luciferase activity stimulated by TGF-β in cells without compound treatment was set as 100%, and the effects of each compound on TGF-β-stimulated PAI-I promoter activity were compared. The steps for measuring Pai-1 luciferase activity include using a 96-well plate (DMEM medium containing 10% FBS), seeding each well with 1.5×10^5 cells, and culturing in an incubator overnight. After discarding the medium the next day, cells in DMEM medium with or without the addition of test compounds were treated with recombinant TGF-β (50 pM) and allowed to react in a 37° C. incubator for 4 hours. The cell culture medium was aspirated, washed with PBS, and the activity of Pai-1 luciferase was evaluated by luciferase assay."}},
  "data": [
    {"compound": "CC(C)CCCC(C)C1CCC2C3=CC=C4CC(O)CCC4(C)C3CCC21C", "note": "(centres unmarked) [Code 039, 7-DHC]", "values": [
      {"measurement": "EC50", "setting": "[1]; Rattus norvegicus, CON (normal rPASMC), 0.1% FBS, read-out: EC50", "value": 30, "unit": "µM"},
      {"measurement": "Inhibition of cell growth (in words)", "setting": "[1]; rPASMC CON3, 0.1% FBS, 25 μM, FIG. 3", "value": "significant inhibitory effects"},
      {"measurement": "EC50", "setting": "[2]; Rattus norvegicus, MCT (PAH rPASMC), 0.1% FBS, read-out: EC50", "value": 20, "unit": "µM"},
      {"measurement": "Inhibition of cell growth (in words)", "setting": "[2]; rPASMC MCT2, 0.1% FBS, 25 μM, FIG. 3", "value": "significant inhibitory effects"},
      {"measurement": "IC50", "setting": "[3]", "value": 15.5, "unit": "µM"}
    ]}
  ]
}
